One data set addresses dopamine D2-receptors (Rattus norvegicus, UniProt P61169). Briefly: affinity for dopamine D2-receptors by displacement experiments with [3H]-spiperone (rat striatum membranes). Format: binding. The note with it: for Ki: [3H]-spiperone, high-affinity form of the dopamine receptor; for α2-IC50 / D2-Ki: relative affinity for dopamine-D2 receptors compared with α2-adrenoceptors, the higher, the higher the D2/α2 selectivity. The method, then: 1Determining the affinity for dopamine D2-receptors by displacement experiments with [^3 H]-spiperone (Modified Method of W. Billard et al., Life Sci. 35, 1885 (1984) and D. J. de Vries and P. M. Beart, Eur. J. Pharmacol. 109, 417 (1985))
Male rats (of the Chbb:Thom strain weighing about 200 g) were killed by a blow to the back of the neck. The brains were removed and dissected on ice. The striata were dissected out, weighed and homogenised in 25 volumes of tris buffer (50 mM tris-HCl, 1 mM EDTA, 5 mM MgCl2 and 1 mM ascorbic acid) for 30 seconds in an Ultra-Turrax at maximum speed, followed by 10 cycles in a Potter-Elvehjem at 1400 rpm. The pellet obtained after centrifuging at 50,000×g at 4° C. for 15 minutes was again taken up in 25 ml of tris buffer and centrifuged under the above conditions. The supernatant was discarded and the pellet obtained was incubated in 25 ml of tris buffer at 37° C. for 30 minutes and then centrifuged again at 50,000×g at 4° C. for 15 minutes. Finally, the pellet obtained was mixed with tris buffer to obtain a homogenate dilution of 1:500 (based on the weight of the striata).
1 ml aliquots of the membrane preparation were incubated with 1 ml of a solution of 0.25 nM [^3 H]-spiperone ([…], Messrs. DuPont NEN) and at increasing concentrations of the test substance (10^-11 to 10^-4 M) at ambient temperature for one hour. Incubation was ended by the addition of 5 ml of ice cold tris buffer and filtration using Whatman GF/B filters. The filters were washed twice, each time with 5 ml of ice cold buffer. The radioactivity of the filters was determined by liquid scintillation measurement in Instagel^(R) (Messrs. Canberra Packard). Non-specific binding was determined in the presence of 10^-5 M haloperidol (Sigma Chemical Co.).
Displacement curves were obtained from the data using the TOPFIT programming package (G. Heinzel in "Pharmacokinetics During Drug Development: Data Analysis and Evaluation Techniques", G. Bozler and J. M. van Rossum Eds., G. Fischer Verlag, Stuttgart 1982, 207).

The target in the next data set is T1, alpha-2 receptors (Rattus norvegicus, UniProt P22909).
T1 sequence (P22909 1-465): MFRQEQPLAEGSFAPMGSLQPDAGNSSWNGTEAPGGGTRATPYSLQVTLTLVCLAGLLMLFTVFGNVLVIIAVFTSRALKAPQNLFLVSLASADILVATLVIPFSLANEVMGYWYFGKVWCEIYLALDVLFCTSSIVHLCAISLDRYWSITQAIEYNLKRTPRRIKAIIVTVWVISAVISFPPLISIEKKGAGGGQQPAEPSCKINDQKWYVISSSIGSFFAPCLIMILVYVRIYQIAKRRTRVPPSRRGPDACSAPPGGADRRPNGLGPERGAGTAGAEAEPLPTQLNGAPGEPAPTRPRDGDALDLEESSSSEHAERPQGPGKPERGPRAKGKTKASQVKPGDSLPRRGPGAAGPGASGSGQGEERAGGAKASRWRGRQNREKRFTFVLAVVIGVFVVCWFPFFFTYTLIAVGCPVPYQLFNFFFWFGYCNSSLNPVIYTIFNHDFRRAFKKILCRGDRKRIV
Description: affinity for alpha-2 receptors by displacement experiments with [3H]-clonidine (rat cortex membranes). The following applies: read-out: α2-IC50. It counts as binding.

Another data set concerns MPTP monkeys. Briefly: post-synaptic dopaminergic activity in MPTP monkeys. Format: in vivo, rhesus monkey. The note with it: for minimal effective dose: Primates, in Macaca mulatta, im, rhesus monkeys, i.m., read-out: minimum dose (MED) required to alleviate the Parkinson's symptoms; for effect on MPTP-induced symptoms: MPTP-treated rhesus monkeys. The source says: 6. Determining the post-synaptic dopaminergic activity in MPTP monkeys (Modified Method of R. S. Burns et al., Proc. Natl. Acad. Sci. 80. 4546 (1983))
The neurotoxin 1-methyl-4-phenyl-1,2,3,6- tetrahydro-pyridine (MPTP) produces in humans and monkeys an irreversible syndrome which in its clinical, pathological, biochemical and pharmacological appearance is very similar to idiopathic Parkinson's disease (Markey et al., Nature 311, 464 (1984)). The reason for this similarity is that MPTP selectively destroys those dopaminergic nerve cells in the substantia nigra of the brain which are also lost by degenerative processes in Parkinson's disease. There is even some discussion that MPTP or an MPTP-like substance might be formed in the body and trigger Parkinson's disease (S. H. Snyder, Nature 311, 514 (1984)). Possibly because of the specific MPTP metabolism, the clinical formation of the MPTP-induced Parkinson syndrome has hitherto been detected only in humans and monkeys. The MPTP model produced in the rhesus monkey is therefore exceptionally suitable for testing the activity of post-synaptically acting dopamine agonists. For this purpose, rhesus monkeys were given MPTP in overall doses of up to about 6 mg/kg of body weight, until the following symptoms appeared: The animals were akinetic and unable to take water and food.
It is clear that with the compounds according to the invention there is no sedative effect or ataxia at a dosage which is several times the MED, which can be put down to the absence of a corresponding activity mediated by the α2- receptors.

Experimental findings from patent US5068325A, “4,5,7,8-tetrahydro-6H-thiazolo[5,4-d]azepines, their preparation and their use as pharmaceutical compositions” (priority 1988, dated 1991) are described below.

In general, Ki refers to the equilibrium dissociation constant of an inhibitor or competing ligand from its target. Read a high Ki as weaker binding. A word on the IC50: it is the concentration needed to halve the response being measured.

Chain of dopamine D2-receptors (P61169 whole entry): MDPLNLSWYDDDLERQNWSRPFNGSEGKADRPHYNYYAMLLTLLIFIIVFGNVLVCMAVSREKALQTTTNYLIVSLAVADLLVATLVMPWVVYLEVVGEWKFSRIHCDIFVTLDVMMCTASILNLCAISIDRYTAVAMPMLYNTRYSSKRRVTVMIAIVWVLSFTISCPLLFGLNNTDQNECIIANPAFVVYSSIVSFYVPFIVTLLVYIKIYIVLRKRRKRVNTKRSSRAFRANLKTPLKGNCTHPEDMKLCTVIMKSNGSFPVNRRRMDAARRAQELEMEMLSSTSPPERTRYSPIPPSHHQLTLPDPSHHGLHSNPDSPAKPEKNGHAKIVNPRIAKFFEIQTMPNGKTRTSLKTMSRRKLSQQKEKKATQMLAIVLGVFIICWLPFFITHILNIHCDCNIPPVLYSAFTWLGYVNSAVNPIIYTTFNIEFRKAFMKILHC
Description for alpha-2 receptors: Determination of the affinity for alpha-2 receptors by displacement experiments with [^3 H] clonidine (Modified Method of B. Jarrott, W. J. Louis and R. J. Summers, Biochem. Pharmacol. 27, 141 (1979))
A male rat (Chbb:Thom strain weighing about 200 g) was killed by a blow to the back of the neck. The brain was removed and the cortex dissected out, weighed and homogenised in 25 volumes of tris buffer (50 mM tris- HCl, pH 7.50) for 30 seconds in an Ultra-Turrax at maximum speed, followed by 10° Cycles in a Potter- Elvehjem at 1400 rpm. The homogenised material was combined with tris buffer to obtain a homogenate dilution of 1:50 (based on the weight of the cortex).
1 ml aliquots of the membrane preparation were incubated for three hours at ambient temperature with 1 ml of a solution of 1 nM of [^3 H]-clonidine (2.2 TBq/mmol, Messrs. DuPont NEN) and with increasing concentrations of the test substance (10^-11 to 10^-4 M). Incubation was ended by the addition of 5 ml of ice-cold tris buffer and filtration through Whatman GF/B filters. The filters were washed twice, each time with 5 ml of ice cold buffer. The radioactivity of the filters was determined by liquid scintillation measurement in Instagel(R) (Messrs. Canberra Packard). The non-specific binding was determined in the presence of 10^-5 M of oxymetazoline (Sigma Chemical Co.).

As for `Cc1cccnc1C=CCN1CCc2nc(N)sc2CC1` [Example 11i, 2-Amino-6-(3-(3-methyl-2-pyridyl)allyl)-4,5,7,8-tetrahydro-6H-thiazolo[5,4-d]azepine], on dopamine D2-receptors, the affinity corresponds to a Ki of 2.6 nM and the “α2-IC50 / D2-Ki” value is given as 576. Further, at alpha-2 receptors, the half-inhibitory concentration (IC50) is 1500 nM. Moreover, in the data set with MPTP monkeys (0.05 mg/kg i.m. (MED)), the Duration of activity is reported as ~ 1.5 hours and the Side effects entry was “none”. In the data set on MPTP monkeys (0.20 mg/kg i.m.), the Duration of activity lay in the range of 2.0 to 5 h and the Side effects entry was “none”. In the data set on MPTP monkeys, the minimal effective dose amounted to 0.05 mg/kg.
Take `Nc1nc2c(s1)CCN(CC#Cc1ccccn1)CC2` [Example 10, 2-Amino-6-(3-(2-pyridyl)-2-propyn-1-yl)-4,5,7,8-tetrahydro-6H-thiazolo[5,4-d]azepine]: at dopamine D2-receptors, the affinity, expressed as Ki, was 17 nM and the “α2-IC50 / D2-Ki” value was 882. Also, the 50% inhibitory concentration (IC50) at alpha-2 receptors is 15000 nM.
Take `Nc1nc2c(s1)CCN(CC=Cc1ccccc1-c1ccccc1)CC2` [Example 4v, 2-Amino-6-(3-(2-biphenyl)allyl)-4,5,7,8-tetrahydro-6H-thiazolo[5,4-d]azepine]: at dopamine D2-receptors, the affinity corresponds to a Ki of 8 nM and the “α2-IC50 / D2-Ki” value is given as 287. Also, the IC50 at alpha-2 receptors turned out to be 2300 nM.
In the case of `N[C@@H](Cc1ccc(O)c(O)c1)C(=O)O` [levodopa, reference compound], in the data set on MPTP monkeys, the “effect on MPTP-induced symptoms” value is listed as “temporary cessation of this phenomenon”.
Take `COc1ccc(OC)c(C=CCN2CCc3nc(N)sc3CC2)c1` [Example 4p, 2-Amino-6-(3-(2,5-dimethoxy-phenyl)allyl)-4,5,7,8-tetrahydro-6H-thiazolo[5,4-d]azepine]: on dopamine D2-receptors, the affinity corresponds to a Ki of 0.89 nM and the “α2-IC50 / D2-Ki” value is listed as 100. For the same molecule, at alpha-2 receptors, the IC50 came to 89 nM. Further, in the data set on MPTP monkeys (0.05 mg/kg i.m. (MED)), the Duration of activity is ~ 2 hours and the Side effects entry is reported as “none”. In the data set with MPTP monkeys (0.30 mg/kg i.m.), the Duration of activity lay within 2.0 to 5 h and the Side effects entry is “none”. For the same molecule, the minimal effective dose in the data set with MPTP monkeys was found to be 0.05 mg/kg.
Consider `Nc1nc2c(s1)CCN(CC=Cc1ccccc1[N+](=O)[O-])CC2` [Example 4g, 2-Amino-6-(3-(2-nitro-phenyl)allyl)-4,5,7,8-tetrahydro-6H-thiazolo[5,4-d]azepine], for which, on dopamine D2-receptors, the inhibition constant (Ki) was 2 nM and the “α2-IC50 / D2-Ki” value is 120. For the same molecule, the 50% inhibitory concentration (IC50) on alpha-2 receptors is 240 nM.
`CC(C)COc1ccc(C=CCN2CCc3nc(N)sc3CC2)cc1` [Example 8n, 2-Amino-6-(3-(4-isobutoxy-phenyl)allyl)-4,5,7,8-tetrahydro-6H-thiazolo[5,4-d]azepine]: on dopamine D2-receptors, the inhibition constant Ki turned out to be 15 nM and the “α2-IC50 / D2-Ki” value was found to be 133. Further, the IC50 at alpha-2 receptors was 2000 nM.
Consider `Nc1nc2c(s1)CCN(CC=Cc1ccc(Cl)cc1)CC2` [Example 3a, 2-Amino-6-(3-(4-chloro-phenyl)allyl)-4,5,7,8-tetrahydro-6H-thiazolo[5,4-d]azepine], for which, on dopamine D2-receptors, the inhibitory constant (Ki) is 7 nM and the “α2-IC50 / D2-Ki” value is 88. Further, the IC50 on alpha-2 receptors worked out at 620 nM.
The corresponding values for `Nc1nc2c(s1)CCN(CC=Cc1ccc([N+](=O)[O-])cc1)CC2` [Example 4i, 2-Amino-6-(3-(4-nitro-phenyl)allyl)-4,5,7,8-tetrahydro-6H-thiazolo[5,4-d]azepine] are 13 nM, 157 and 2050 nM.
Turning to `Nc1nc2c(s1)CCN(CC=Cc1ccc(OCc3ccccc3)cc1)CC2` [Example 4z, 2-Amino-6-(3-(4-benzyloxy-phenyl)allyl)-4,5,7,8-tetrahydro-6H-thiazolo[5,4-d]azepine], at dopamine D2-receptors, the Ki came to 8.4 nM and the “α2-IC50 / D2-Ki” value came out at 452. The IC50 on alpha-2 receptors was found to be 3800 nM.
Consider `Nc1nc2c(s1)CCN(CC=Cc1ccccc1O)CC2` [Example 15, 2-Amino-6-(3-(2-hydroxy-phenyl)allyl)-4,5,7,8-tetrahydro-6H-thiazolo[5,4-d]azepine], for which, on dopamine D2-receptors, the Ki is 0.95 nM and the “α2-IC50 / D2-Ki” value is 621. The IC50 at alpha-2 receptors stood at 590 nM.
Turning to `Nc1nc2c(s1)CCN(CC=Cc1cccc(Cl)n1)CC2` [Example 11, 2-Amino-6-(3-(6-chloro-2-pyridyl)allyl)-4,5,7,8-tetrahydro-6H-thiazolo[5,4-d]azepine], on dopamine D2-receptors, the Ki was 3.2 nM and the “α2-IC50 / D2-Ki” value was found to be 256. Further, the half-inhibitory concentration (IC50) on alpha-2 receptors amounted to 820 nM.
Take `Nc1nc2c(s1)CCN(CC=Cc1ccccc1Cl)CC2` [Example 4e, 2-Amino-6-(3-(2-chloro-phenyl)allyl)-4,5,7,8-tetrahydro-6H-thiazolo[5,4-d]azepine]: at dopamine D2-receptors, the affinity, expressed as Ki, was 3 nM and the “α2-IC50 / D2-Ki” value stood at 63. At alpha-2 receptors, the 50% inhibitory concentration (IC50) stood at 190 nM.
`Cc1nc(C=CCN2CCc3nc(N)sc3CC2)cs1` [Example 9, 2-Amino-6-(3-(2-methyl-4-thiazolyl)allyl)-4,5,7,8,-tetrahydro-6H-thiazolo[5,4-d]azepine-semihydrate]: on dopamine D2-receptors, the Ki is 6.7 nM and the “α2-IC50 / D2-Ki” value is recorded as 79. Besides, the concentration for half-maximal inhibition (IC50) at alpha-2 receptors is 530 nM.
Consider `COc1cccc(C=CCN2CCc3nc(N)sc3CC2)c1OC` [Example 4o, 2-Amino-6-(3-(2,3-dimethoxy-phenyl)allyl)-4,5,7,8-tetrahydro-6H-thiazolo[5,4-d]azepine], for which, at dopamine D2-receptors, the inhibitory constant (Ki) amounted to 1.3 nM and the “α2-IC50 / D2-Ki” value is reported as 423. For the same molecule, at alpha-2 receptors, the IC50 was determined as 550 nM.
For `Nc1nc2c(s1)CCN(CC=Cc1ccccc1N)CC2` [Example 16, 2-Amino-6-(3-(2-amino-phenyl)allyl)-4,5,7,8-tetrahydro-6H-thiazolo[5,4-d]azepine], on dopamine D2-receptors, the inhibition constant (Ki) was 1.4 nM and the “α2-IC50 / D2-Ki” value is 285. The IC50 on alpha-2 receptors was determined as 400 nM.
As for `CN1CCc2cccc3c2[C@H]1Cc1ccc(O)c(O)c1-3` [apomorphine, reference compound], the “effect on MPTP-induced symptoms” value in the data set on MPTP monkeys is listed as “temporary cessation of this phenomenon”.
In the case of `Cl.Cl.Nc1nc2c(s1)CCN(CCCc1ccccc1)CC2` [Example 3b, 2-Amino-6-(3-phenyl-propyl)-4,5,7,8-tetrahydro-6H-thiazolo[5,4-d]azepine-dihydrochloride], on dopamine D2-receptors, the Ki was 24 nM and the “α2-IC50 / D2-Ki” value was 145. The IC50 at alpha-2 receptors amounted to 810 nM.
Turning to `Nc1nc2c(s1)CCN(CC(=Cc1ccccc1)c1ccccc1)CC2` [Example 8o], at dopamine D2-receptors, the Ki was 14 nM and the “α2-IC50 / D2-Ki” value is 235. The IC50 at alpha-2 receptors was 3300 nM.
